This is an account of results in patent US7411083B2, “Substituted acetic acid derivatives” (Wyeth, priority 2003, dated 2008).

Molecules are shown by their SMILES.

In general, inhibition refers to the change of the read-out against control, counted positive when it falls.

T1 sequence (P05121 24-402): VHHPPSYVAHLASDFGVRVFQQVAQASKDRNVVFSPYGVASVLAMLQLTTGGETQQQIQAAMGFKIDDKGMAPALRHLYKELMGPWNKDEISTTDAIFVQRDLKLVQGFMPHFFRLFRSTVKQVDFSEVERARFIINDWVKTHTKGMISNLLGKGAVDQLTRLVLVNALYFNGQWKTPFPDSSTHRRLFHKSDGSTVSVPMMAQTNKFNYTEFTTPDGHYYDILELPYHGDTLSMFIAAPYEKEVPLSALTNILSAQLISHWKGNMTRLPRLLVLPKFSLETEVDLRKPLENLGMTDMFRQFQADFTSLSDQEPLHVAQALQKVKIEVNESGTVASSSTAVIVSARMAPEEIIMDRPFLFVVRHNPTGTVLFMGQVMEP

The test addresses T1, recombinant human plasminogen activator inhibitor-1 (PAI-1) (Homo sapiens, UniProt P05121).
T1 construct: purchased Molecular Innovations, Royal Oak, Mich
Briefly: Screening for PAI-1 inhibition (residual tPA activity, Spectrozyme-tPA chromogenic substrate). In kind it is biochemical. To be noted: test compound at 100 Um; pH 6.6 buffer, 140 nM PAI-1, 70 nM tPA. Put shortly:
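PAI-1 at 140 nM, pH 6.6 buffer, preincubated 1 h at room temperature with compound (1-100 μM final, ≤0.2% DMSO), then 70 nM tPA added for 30 min. Residual tPA activity read by Spectrozyme-tPA absorbance at 405 nm at 0 and 60 min. Inhibition taken as residual tPA activity.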
With `O=C(O)CO/N=C/c1ccc(-c2ccc(OCc3cccc(Br)c3)cc2)cc1` [Compound 103, {[((1E)-{4′-[(3-bromobenzyl)oxy]-1,1′-biphenyl-4-yl}methylidene)amino]oxy}acetic acid], the inhibition at 100 µM was 62%.

In the case of `O=C(O)CO/N=C/c1ccc(-c2ccc(OCc3cccc(Cl)c3)cc2)cc1` [Compound 104, {[((1E)-{4′-[(3-chlorobenzyl)oxy]-1,1′-biphenyl-4-yl}methylidene)amino]oxy}acetic acid], the inhibition at 100 µM amounted to 5%.

For the molecule `O=C(O)CO/N=C/c1ccc(-c2ccc(OCc3ccccc3)cc2)cc1` [Compound 105, [({(1E)-[4′-(benzyloxy)-1,1′-biphenyl-4-yl]methylidene}amino)oxy]acetic acid], the inhibition at 100 µM is 5%.

Regarding `O=C(O)CO/N=C/c1ccc(-c2ccc(OCc3cccc(C(F)(F)F)c3)cc2)cc1` [Compound 106, ({[(1E)-(4′-{[3-(trifluoromethyl)benzyl]oxy}-1,1′-biphenyl-4-yl)methylidene]amino}oxy)acetic acid], the inhibition at 100 µM was 8%.

As for `O=C(O)CO/N=C/c1ccc(-c2ccc(OCc3ccccc3Cl)cc2)cc1` [Compound 107, {[((1E)-{4′-[(2-chlorobenzyl)oxy]-1,1′-biphenyl-4-yl}methylidene)amino]oxy}acetic acid], the inhibition at 100 µM worked out at 30%.

In the case of `O=C(O)CO/N=C/c1ccc(-c2ccc(OCc3ccc(Cl)c(Cl)c3)cc2)cc1` [Compound 108, {[((1E)-{4′-[(3,4-dichlorobenzyl)oxy]-1,1′-biphenyl-4-yl}methylidene)amino]oxy}acetic acid], the inhibition at 100 µM turned out to be 58%.

With `Cc1ccc(COc2ccc(-c3ccc(/C=N/OCC(=O)O)cc3)cc2)cc1` [Compound 109, {[((1E)-{4′-[(4-methylbenzyl)oxy]-1,1′-biphenyl-4-yl}methylidene)amino]oxy}acetic acid], the inhibition at 100 µM was found to be 7%.

As to `Cc1cccc(COc2ccc(-c3ccc(/C=N/OCC(=O)O)cc3)cc2)c1` [Compound 110, {[((1E)-{4′-[(3-methylbenzyl)oxy]-1,1′-biphenyl-4-yl}methylidene)amino]oxy}acetic acid], the inhibition at 100 µM is 6%.

Turning to `O=C(O)CO/N=C/c1ccc(-c2ccc(OCc3c(Cl)cccc3Cl)cc2)cc1` [Compound 111, {[((1E)-{4′-[(2,6-dichlorobenzyl)oxy]-1,1′-biphenyl-4-yl}methylidene)amino]oxy}acetic acid], the inhibition at 100 µM is 38%.

Take `CC(C)(C)c1ccc(COc2ccc(/C=N/OCC(=O)O)cc2OCc2ccc(C(C)(C)C)cc2)cc1` [Compound 112, {[((1E)-{3,4-bis[(4-tert-butylbenzyl)oxy]phenyl}methylidene)amino]oxy}acetic acid]: the inhibition at 100 µM is 65%.

Take `O=C(O)CO/N=C/c1ccc(OCc2ccc(F)cc2)c(OCc2ccc(F)cc2)c1` [Compound 113, {[((1E)-{3,4-bis[(4-fluorobenzyl)oxy]phenyl}methylidene)amino]oxy}acetic acid]: the inhibition at 100 µM was determined as 91%.

As for `O=C(O)CO/N=C/c1ccc(OCc2ccc(C(F)(F)F)cc2)c(OCc2ccc(C(F)(F)F)cc2)c1` [Compound 114, ({[(1E)-(3,4-bis{[4-(trifluoromethyl)benzyl]oxy}phenyl)methylidene]amino}oxy)acetic acid], the inhibition at 100 µM was found to be 93%.

On to `O=C(O)CO/N=C/c1ccc(OCc2ccc(Br)cc2)c(OCc2ccc(Br)cc2)c1` [Compound 115, {[((1E)-{3,4-bis[(4-bromobenzyl)oxy]phenyl}methylidene)amino]oxy}acetic acid], for which the inhibition at 100 µM came out at 87%.

Consider `O=C(O)CO/N=C/c1ccc(OCc2cccc(Cl)c2)c(OCc2cccc(Cl)c2)c1` [Compound 116, {[((1E)-{3,4-bis[(3-chlorobenzyl)oxy]phenyl}methylidene)amino]oxy}acetic acid], for which the inhibition at 100 µM turned out to be 92%.

Take `O=C(O)CO/N=C/c1ccc(OCc2cccc(Br)c2)c(OCc2cccc(Br)c2)c1` [Compound 117, {[((1E)-{3,4-bis[(3-bromobenzyl)oxy]phenyl}methylidene)amino]oxy}acetic acid]: the inhibition at 100 µM came out at 88%.

Turning to `Cc1cccc(COc2ccc(/C=N/OCC(=O)O)cc2OCc2cccc(C)c2)c1` [Compound 118, {[((1E)-{3,4-bis[(3-methylbenzyl)oxy]phenyl}methylidene)amino]oxy}acetic acid], the inhibition at 100 µM came out at 92%.

As to `O=C(O)CO/N=C/c1ccc(OCc2cccc(C(F)(F)F)c2)c(OCc2cccc(C(F)(F)F)c2)c1` [Compound 119, ({[(1E)-(3,4-bis{[3-(trifluoromethyl)benzyl]oxy}phenyl)methylidene]amino}oxy)acetic acid], the inhibition at 100 µM was found to be 93%.

On to `Cc1ccc(COc2ccc(/C=N/OCC(=O)O)cc2OCc2ccc(C)cc2)cc1` [Compound 120, {[((1E)-{3,4-bis[(4-methylbenzyl)oxy]phenyl}methylidene)amino]oxy}acetic acid], for which the inhibition at 100 µM came out at 78%.

For the molecule `O=C(O)CO/N=C/c1ccc(OCc2ccc(F)c(F)c2)c(OCc2ccc(F)c(F)c2)c1` [Compound 121, {[((1E)-{3,4-bis[(3,4-difluorobenzyl)oxy]phenyl}methylidene)amino]oxy}acetic acid], the inhibition at 100 µM was 72%.

Regarding `Cc1ccc(COc2ccc(/C=N/OCC(=O)O)c(OCc3ccc(C)cc3)c2)cc1` [Compound 122, {[((1E)-{2,4-bis[(4-methylbenzyl)oxy]phenyl}methylidene)amino]oxy}acetic acid], the inhibition at 100 µM was 87%.

Turning to `O=C(O)CO/N=C/c1ccc(OCc2ccc(F)cc2)cc1OCc1ccc(F)cc1` [Compound 123, {[((1E)-{2,4-bis[(4-fluorobenzyl)oxy]phenyl}methylidene)amino]oxy}acetic acid], the inhibition at 100 µM worked out at 72%.

As for `O=C(O)CO/N=C/c1ccc(OCc2ccc(C(F)(F)F)cc2)cc1OCc1ccc(C(F)(F)F)cc1` [Compound 124, ({[(1E)-(2,4-bis{[4-(trifluoromethyl)benzyl]oxy}phenyl)methylidene]amino}oxy)acetic acid], the inhibition at 100 µM was found to be 95%.

For `O=C(O)CO/N=C/c1ccc(OCc2ccc(Br)cc2)cc1OCc1ccc(Br)cc1` [Compound 125, {[((1E)-{2,4-bis[(4-bromobenzyl)oxy]phenyl}methylidene)amino]oxy}acetic acid], the inhibition at 100 µM was determined as 90%.

For the molecule `CC(C)(C)c1ccc(COc2ccc(/C=N/OCC(=O)O)c(OCc3ccc(C(C)(C)C)cc3)c2)cc1` [Compound 126, {[((1E)-{2,4-bis[(4-tert-butylbenzyl)oxy]phenyl}methylidene)amino]oxy}acetic acid], the inhibition at 100 µM was determined as 77%.

Regarding `O=C(O)CO/N=C/c1ccc(OCc2cccc(Cl)c2)cc1OCc1cccc(Cl)c1` [Compound 127, {[((1E)-{2,4-bis[(3-chlorobenzyl)oxy]phenyl}methylidene)amino]oxy}acetic acid], the inhibition at 100 µM is 88%.

`O=C(O)CO/N=C/c1ccc(OCc2cccc(Br)c2)cc1OCc1cccc(Br)c1` [Compound 128, {[((1E)-{2,4-bis[(3-bromobenzyl)oxy]phenyl}methylidene)amino]oxy}acetic acid]: the inhibition at 100 µM was 91%.

With `Cc1cccc(COc2ccc(/C=N/OCC(=O)O)c(OCc3cccc(C)c3)c2)c1` [Compound 129, {[((1E)-{2,4-bis[(3-methylbenzyl)oxy]phenyl}methylidene)amino]oxy}acetic acid], the inhibition at 100 µM was determined as 90%.
